Measurements as given in the supplement of paper PMC11451515.

Tested on: P12-Ichikawa
Test: cell viability relative to DMSO control; higher = less cytotoxic
Conditions: 48 h
Summary of the method: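 Library compounds in DMSO were pin-dosed into 1536-well plates (5 μl) holding NOMO1 or SEM (500 cells/well) or P12-Ichikawa (1000 cells/well) leukemia cells, across an 11-point threefold series of 47 μM to 0.79 nM. Each cell line had been adapted for at least four passages in each medium. CellTiter-Glo One luminescence was read after 48 h at 37°C. Viability is the per-plate percentage relative to DMSO wells, with cell-free wells as background.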

[1] = HPLM + 10% dialyzed FBS, 0.000781 µM
[2] = HPLM + 10% dialyzed FBS, 0.00234 µM
[3] = HPLM + 10% dialyzed FBS, 0.00702 µM
[4] = HPLM + 10% dialyzed FBS, 0.0211 µM
[5] = HPLM + 10% dialyzed FBS, 0.0632 µM
[6] = HPLM + 10% dialyzed FBS, 0.19 µM
[7] = HPLM + 10% dialyzed FBS, 0.569 µM
[8] = HPLM + 10% dialyzed FBS, 1.71 µM
[9] = HPLM + 10% dialyzed FBS, 5.12 µM
[10] = HPLM + 10% dialyzed FBS, 15.4 µM
[11] = HPLM + 10% dialyzed FBS, 46.1 µM
[12] = RPMI 5 mM glucose + 10% FBS, 0.000781 µM
[13] = RPMI 5 mM glucose + 10% FBS, 0.00234 µM
[14] = RPMI 5 mM glucose + 10% FBS, 0.00702 µM
[15] = RPMI 5 mM glucose + 10% FBS, 0.0211 µM
[16] = RPMI 5 mM glucose + 10% FBS, 0.0632 µM
[17] = RPMI 5 mM glucose + 10% FBS, 0.19 µM
[18] = RPMI 5 mM glucose + 10% FBS, 0.569 µM
[19] = RPMI 5 mM glucose + 10% FBS, 1.71 µM
[20] = RPMI 5 mM glucose + 10% FBS, 5.12 µM
[21] = RPMI 5 mM glucose + 10% FBS, 15.4 µM
[22] = RPMI 5 mM glucose + 10% FBS, 46.1 µM
[23] = RPMI 5 mM glucose + 10% dialyzed FBS, 0.000781 µM
[24] = RPMI 5 mM glucose + 10% dialyzed FBS, 0.00234 µM
[25] = RPMI 5 mM glucose + 10% dialyzed FBS, 0.00702 µM
[26] = RPMI 5 mM glucose + 10% dialyzed FBS, 0.0211 µM
[27] = RPMI 5 mM glucose + 10% dialyzed FBS, 0.0632 µM
[28] = RPMI 5 mM glucose + 10% dialyzed FBS, 0.19 µM
[29] = RPMI 5 mM glucose + 10% dialyzed FBS, 0.569 µM
[30] = RPMI 5 mM glucose + 10% dialyzed FBS, 1.71 µM
[31] = RPMI 5 mM glucose + 10% dialyzed FBS, 5.12 µM
[32] = RPMI 5 mM glucose + 10% dialyzed FBS, 15.4 µM
[33] = RPMI 5 mM glucose + 10% dialyzed FBS, 46.1 µM

Structure (SMILES) | cell viability [1] [%] | cell viability [2] [%] | cell viability [3] [%] | cell viability [4] [%] | cell viability [5] [%] | cell viability [6] [%] | cell viability [7] [%] | cell viability [8] [%] | cell viability [9] [%] | cell viability [10] [%] | cell viability [11] [%] | cell viability [12] [%] | cell viability [13] [%] | cell viability [14] [%] | cell viability [15] [%] | cell viability [16] [%] | cell viability [17] [%] | cell viability [18] [%] | cell viability [19] [%] | cell viability [20] [%] | cell viability [21] [%] | cell viability [22] [%] | cell viability [23] [%] | cell viability [24] [%] | cell viability [25] [%] | cell viability [26] [%] | cell viability [27] [%] | cell viability [28] [%] | cell viability [29] [%] | cell viability [30] [%] | cell viability [31] [%] | cell viability [32] [%] | cell viability [33] [%]
C[C@@H]1CC[C@@]2(CC[C@]3(C)\C(=C/C[C@@H]4[C@@]5(C)C[C@@H](O)[C@H](O)[C@@](C)(CO)[C@@H]5CC[C@@]34C)[C@@H]2[C@H]1C)C(O)=O | 109 | 113 | 108 | 122 | 121 | 120 | 116 | 116 | 122 | 121 | 112 | 116 | 123 | 113 | 116 | 119 | 121 | 126 | 131 | 123 | 119 | 110 | 109 | 113 | 114 | 109 | 121 | 118 | 128 | 121 | 125 | 110 | 123
CC(=O)OCC(=O)[C@@]1(O)CC[C@H]2[C@@H]3CCC/4=C/C(=O)/C=C\[C@]4(C)[C@H]3[C@@H](O)C[C@]12C | 120 | 128 | 123 | 126 | 102 | 85.3 | 95.7 | 72.1 | 66.4 | 118 | 109 |  |  |  |  |  |  |  |  |  |  |  | 117 | 118 | 121 | 130 | 92.5 | 77.4 | 100 | 50.8 | 43.8 | 109 | 102
CCN1\C=C(C(O)=O)/C(=O)C2=C1C(=C(N3CCNC(C)C3)C(=C2)F)F (configuration not stated) | 96.7 | 107 | 111 | 125 | 101 | 109 | 119 | 115 | 124 | 118 | 110 | 87 | 94 | 110 | 110 | 109 | 110 | 114 | 113 | 107 | 124 | 116 | 104 | 112 | 110 | 113 | 107 | 116 | 117 | 113 | 124 | 120 | 112
Cc1ccc(C(=O)Nc2ccc([S+](=O)([O-])O)c3cc([S+](=O)([O-])O)cc([S+](=O)([O-])O)c23)cc1NC(=O)c1cccc(NC(=O)Nc2cccc(C(=O)Nc3cc(C(=O)Nc4ccc([S+](=O)([O-])O)c5cc([S+](=O)([O-])O)cc([S+](=O)([O-])O)c45)ccc3C)c2)c1 | 97.5 | 104 | 92.8 | 95.4 | 96.4 | 87.2 | 77.3 | 81.5 | 57.1 | 55.2 | 47 | 97.3 | 89.2 | 99.6 | 102 | 88.6 | 82.2 | 92.4 | 81.1 | 60.5 | 53.4 | 44.3 | 99.1 | 94.9 | 93.5 | 94 | 89.3 | 88.8 | 80 | 75.9 | 56.4 | 54 | 42.9
Clc1ccc(C(c2ccccc2Cl)C(Cl)Cl)cc1 (configuration not stated) | 113 | 119 | 116 | 112 | 118 | 119 | 107 | 110 | 103 | 95.4 | 91.6 | 122 | 118 | 116 | 109 | 119 | 107 | 104 | 116 | 106 | 103 | 94.4 | 122 | 120 | 109 | 112 | 116 | 107 | 106 | 106 | 103 | 99.6 | 97.2
Nc1ncnc2nc(-c3ccc(N4CCOCC4)nc3)cc(-c3cccc(Br)c3)c12 | 116 | 128 | 117 | 122 | 117 | 117 | 115 | 119 | 111 | 108 | 113 |  |  |  |  |  |  |  |  |  |  |  | 114 | 121 | 112 | 121 | 118 | 121 | 129 | 115 | 115 | 108 | 112
CN1CCN(CC1)C2=CC3=C([NH]C(=N3)C/4=C(\N)C5=C(F)C=CC=C5NC4=O)C=C2 | 103 | 106 | 109 | 99.2 | 88.7 | 99.7 | 96.3 | 95 | 73 | 65.5 | 37 | 107 | 103 | 111 | 112 | 88.8 | 104 | 91.9 | 89.2 | 60.2 | 45.2 | 30.4 | 112 | 112 | 106 | 107 | 102 | 107 | 97.8 | 91.3 | 67.1 | 46.3 | 29.4
COc1cc(C[C@@H](CO)[C@H](CO)Cc2ccc(O)c(OC)c2)ccc1O | 94.8 | 102 | 100 | 105 | 106 | 116 | 112 | 111 | 104 | 99.6 | 115 | 99.4 | 95.1 | 108 | 109 | 109 | 111 | 118 | 119 | 114 | 117 | 110 | 109 | 112 | 113 | 118 | 118 | 122 | 119 | 133 | 134 | 136 | 125
Clc1ccc(C(c2ccc(Cl)cc2)[n+]2ccn(CC(OCc3ccc(Cl)cc3Cl)c3ccc(Cl)cc3Cl)c2)cc1 (configuration not stated) | 115 | 112 | 109 | 104 | 113 | 117 | 110 | 98.1 | 102 | 70.6 | 47.1 | 129 | 113 | 115 | 110 | 115 | 115 | 113 | 100 | 105 | 70.2 | 21 |  |  |  |  |  |  |  |  |  |  | 
O=C(O)c1cccc(-c2noc(-c3ccccc3F)n2)c1 | 99.7 | 106 | 104 | 100 | 102 | 105 | 102 | 98.6 | 101 | 100 | 95.3 | 96.5 | 98.2 | 97.5 | 106 | 106 | 106 | 101 | 98.7 | 90.9 | 93 | 92.7 | 102 | 105 | 94.9 | 103 | 103 | 97.1 | 95.1 | 102 | 90.6 | 102 | 98.7
O=C1c2ccccc2-c2n[nH]c3cccc1c23 | 96.5 | 102 | 107 | 111 | 107 | 108 | 81 | 106 | 80 | 46.6 | 12.8 | 106 | 109 | 107 | 113 | 109 | 111 | 84.6 | 106 | 68.4 | 48.9 | 10.7 | 98.1 | 97.2 | 98.5 | 108 | 112 | 100 | 87.6 | 101 | 78 | 62.3 | 16.4
COC(=O)CCC1=C(C)C2=CC3=NC(=CC4=C(C)C(=C([NH]4)C=C\5N=C(C=C1[NH]2)\C(=C5C)CCC(O)=O)C=C)\C6=C\C=C(/[C@@H](C(=O)OC)[C@@]36C)C(=O)OC | 98.8 | 103 | 101 | 111 | 102 | 105 | 109 | 106 | 101 | 98.7 | 93.3 | 93.3 | 101 | 104 | 100 | 97.1 | 100 | 103 | 96.8 | 88.9 | 77.1 | 60.9 | 88 | 94.7 | 97.8 | 95.6 | 103 | 96.9 | 105 | 104 | 94.6 | 84.9 | 82.9
c1ccc2c(CN3CCNCC3)cccc2c1 | 111 | 112 | 113 | 108 | 113 | 112 | 109 | 116 | 118 | 111 | 35 | 106 | 104 | 102 | 112 | 111 | 107 | 112 | 111 | 112 | 110 | 26.4 | 107 | 108 | 109 | 107 | 114 | 115 | 117 | 110 | 118 | 119 | 41.1
CC1(C)[C@@H](O)CC[C@@]2(C)[C@H]1CC[C@]3(C)[C@@H]2C(=O)\C=C/4[C@@H]5C[C@](C)(CC[C@]5(C)CC[C@@]34C)C(O)=O | 99.9 | 125 | 117 | 112 | 109 | 118 | 110 | 113 | 104 | 102 | 97.2 | 109 | 121 | 116 | 122 | 114 | 118 | 110 | 122 | 100 | 110 | 111 | 97.5 | 105 | 113 | 113 | 108 | 104 | 98.9 | 106 | 94.6 | 103 | 96.9
CCn1c(C(=O)N(C2CC2)C2CC2)cc2c3c(ncn3C)c(Nc3cc(C)n(C)n3)nc21 | 88.3 | 99.8 | 99.5 | 104 | 109 | 117 | 110 | 108 | 107 | 107 | 86.5 | 92.7 | 116 | 108 | 108 | 118 | 107 | 111 | 110 | 105 | 112 | 91.7 | 90.4 | 100 | 97.6 | 96.4 | 102 | 97.2 | 98 | 98.6 | 102 | 107 | 87.6
